# Reference: patent US5132216A, “Microbial transformation process for antihypertensive products” (Merck & Co., Inc., priority 1991, dated 1992)
# Target: T1, Angiotensin II (A II) receptor (Oryctolagus cuniculus, UniProt P34976)
# T1 sequence (P34976 1-359): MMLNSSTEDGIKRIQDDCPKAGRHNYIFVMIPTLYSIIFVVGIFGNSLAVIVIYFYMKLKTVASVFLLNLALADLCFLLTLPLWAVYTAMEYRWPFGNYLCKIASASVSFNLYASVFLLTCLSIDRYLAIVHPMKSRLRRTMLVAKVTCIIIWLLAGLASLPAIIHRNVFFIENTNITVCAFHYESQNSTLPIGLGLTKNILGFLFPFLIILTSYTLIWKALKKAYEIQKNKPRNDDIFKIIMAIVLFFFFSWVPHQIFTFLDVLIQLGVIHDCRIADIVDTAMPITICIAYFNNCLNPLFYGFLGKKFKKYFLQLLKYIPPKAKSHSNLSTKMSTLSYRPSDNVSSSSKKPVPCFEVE
# Assay: Receptor binding assay using rabbit aortae membrane preparation (125I-Sar1Ile8-angiotensin II displacement, "IC50" assay)
# Protocol: This assay is also referred to herein as the "IC50 " assay.
# Receptor binding assay using rabbit aortae membrane preparation
# Three frozen rabbit aortae (obtained from Pel-Freeze Biologicals) were suspended in 5 mM Tris-0.25M Sucrose, pH 7.4 buffer (50 ml) homogenized, and then centifuged. The mixture was filtered through a cheesecloth and the supernatant was centrifuged for 30 minutes at 20,000 rpm at 4° C. The pellet thus obtained was resuspended in 30 ml of 50 mM Tris-5 mM MgCl2 buffer containing 0.2% Bovine Serum Albumin and 0.2 mg/ml Bacitration and the suspension was used for 100 assay tubes. Samples tested for screening were done in duplicate. To the membrane preparation (0.25 ml) there was added ^125 I-Sar^1 Ile^8 -angiotensin II [obtained from New England Nuclear] (10 ul; 20,000 cpm) with or without the test sample and the mixture was incubated at 37° C. for 90 minutes. The mixture was then diluted with ice-cold 50 mM Tris-0.9% NaCl, pH 7.4 (4 ml) and filtered through a glass fiber filter (GF/B Whatman 2.4" diameter). The filter was soaked in scintillation cocktail (10 ml) and counted for radioactivity using Packard 2660 Tricarb liquid scintillation counter. […]
structure (smiles),measurement,value
Cc1cc(CO)nc2c1nc(C(C)O)n2Cc1ccc(-c2ccccc2-c2nnn[nH]2)cc1 (stereo not shown) [compound (IV)],A II antagonist activity by the IC50 assay,exhibit A II antagonist activity
